Experimental data taken from article PMC9919591, “New Triazine Derivatives as Serotonin 5-HT6 Receptor Ligands” (Molecules, 2023).

Legend:
human D2R = target: T1, human D2R (Homo sapiens, UniProt P14416); experiment: Radioligand binding assay, D2R ([3H]-raclopride); conditions: HEK293 cells stably expressing human D2R
T1 construct: expressed in transfected cells; host or cells: HEK293
Protocol: (§1) Affinity for serotonin 5-HT2A, 5-HT7 and dopamine D2 receptors (D2R) as protein off-targets was evaluated in the radioligand binding assays. In CHO-K1 cells, it was stably expressed human 5-HT2AR, whereas human 5-HT7R and D2R were stably expressed in HEK293 cells. […] A particularly weak affinity towards this receptor was shown through compounds of series 1 (compounds 1–7) and series 2 (compounds 8–13). […]. Radioligand binding assays were used to determine the affinity of the synthesized compounds for human serotonin 5-HT6R, 5-HT2AR, 5-HT7R and dopamine D2R, which were stably expressed in HEK293 cells or CHOk1 cells (5-HT2AR). This was done as described previously.

HepG2 cells = experiment: Hepatotoxicity, MTS assay on HepG2 cells; format: cell-based, human
Protocol: Some substances can lead to liver damage. To eliminate this risk, hepatotoxicity tests are carried out as early as the pre-clinical development phase. One of the methods commonly used to assess the adverse effect of tested compounds on cell viability is the MTT assay, and the most popular cell lines are HepG2 and HepaRG (the human hepatocellular carcinoma cells). To evaluate the toxic effect of compound 3, the MTS assay (one-step MTT assay variant) was performed on the HepG2 cells. HepG2 cells were incubated with increasing concentrations (0.78–50 µM) of compound 3 for 48 h. After that time, the MTS reagent was added and incubated for 1 h. Next the absorbance was read at 490 nm.
The hepatoma cell line HepG2 (ATCC® HB-8065TM) was used to assess the hepatotoxicity of the compounds according to previously described protocols. The CellTiter 96® AQueous Non-Radioactive Cell Proliferation Assay was purchased from Promega (Madison, WI, USA). Compound 3 was tested in two independent experiments in triplicate at seven concentrations (0.78, 1.56, 3.125, 6.25, 12.5, 25 and 50 µM) for […].

[1] = PAMPA assay (BBB penetration, passive transport); format: in vitro ADME; conditions: study a
Description: This test is a very popular method for assessing BBB penetration via passive transport.

human 5-HT7R = target: T2, human 5-HT7R (Homo sapiens, UniProt P34969); experiment: Radioligand binding assay, 5-HT7R ([3H]-5-CT)
T2 construct: expressed in transfected cells; host or cells: HEK293
Protocol: as §1

human 5-HT6R = target: T3, human 5-HT6R (Homo sapiens, UniProt P50406); experiment: Radioligand binding assay, 5-HT6R ([3H]-LSD); conditions: [3H]-LSD; HEK293 cells stably expressing human 5-HT6R; average of at least two independent experiments
T3 construct: expressed in transfected cells; host or cells: HEK293
Protocol: The affinity of compounds (1–25) for 5-HT6R was evaluated in the radioligand binding assay in HEK293 cells stably expressing human 5-HT6R. [^3H]-LSD as a radioligand was used. […] All results are collected in Table 1, Table 2 and Table 3.
Radioligand binding assays were used to determine the affinity of the synthesized compounds for human serotonin 5-HT6R, 5-HT2AR, 5-HT7R and dopamine D2R, which were stably expressed in HEK293 cells or CHOk1 cells (5-HT2AR). This was done as described previously.

human 5-HT2AR = target: T4, human 5-HT2AR (Homo sapiens, UniProt P28223); experiment: Radioligand binding assay, 5-HT2AR ([3H]-ketanserin); conditions: CHO-K1 cells stably expressing human 5-HT2AR
T4 construct: expressed in transfected cells; host or cells: CHO-K1
Protocol: as §1

T2 sequence (P34969 whole entry): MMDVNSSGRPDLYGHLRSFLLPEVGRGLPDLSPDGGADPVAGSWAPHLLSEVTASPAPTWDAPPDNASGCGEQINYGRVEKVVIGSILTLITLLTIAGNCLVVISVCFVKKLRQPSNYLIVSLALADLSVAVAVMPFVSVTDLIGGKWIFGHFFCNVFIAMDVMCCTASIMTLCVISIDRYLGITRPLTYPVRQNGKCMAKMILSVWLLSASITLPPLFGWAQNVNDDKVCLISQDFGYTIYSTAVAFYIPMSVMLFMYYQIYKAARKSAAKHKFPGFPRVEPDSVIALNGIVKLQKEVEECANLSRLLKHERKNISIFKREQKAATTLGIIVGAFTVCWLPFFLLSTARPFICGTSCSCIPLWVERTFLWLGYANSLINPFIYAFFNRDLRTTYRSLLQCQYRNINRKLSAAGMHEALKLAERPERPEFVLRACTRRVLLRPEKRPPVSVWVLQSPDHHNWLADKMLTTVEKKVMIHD
T1 sequence (P14416 whole entry): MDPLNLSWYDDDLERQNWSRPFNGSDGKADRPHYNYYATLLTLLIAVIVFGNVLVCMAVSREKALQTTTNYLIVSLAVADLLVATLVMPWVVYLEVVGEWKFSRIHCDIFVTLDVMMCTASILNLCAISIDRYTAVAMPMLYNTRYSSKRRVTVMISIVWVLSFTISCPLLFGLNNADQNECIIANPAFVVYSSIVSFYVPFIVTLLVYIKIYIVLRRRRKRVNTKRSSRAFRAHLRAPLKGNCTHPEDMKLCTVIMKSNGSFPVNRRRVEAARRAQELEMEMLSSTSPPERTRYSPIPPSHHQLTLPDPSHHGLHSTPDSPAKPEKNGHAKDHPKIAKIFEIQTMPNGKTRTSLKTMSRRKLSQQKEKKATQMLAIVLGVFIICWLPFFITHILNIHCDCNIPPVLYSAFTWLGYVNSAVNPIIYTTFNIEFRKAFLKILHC
T4 sequence (P28223 whole entry): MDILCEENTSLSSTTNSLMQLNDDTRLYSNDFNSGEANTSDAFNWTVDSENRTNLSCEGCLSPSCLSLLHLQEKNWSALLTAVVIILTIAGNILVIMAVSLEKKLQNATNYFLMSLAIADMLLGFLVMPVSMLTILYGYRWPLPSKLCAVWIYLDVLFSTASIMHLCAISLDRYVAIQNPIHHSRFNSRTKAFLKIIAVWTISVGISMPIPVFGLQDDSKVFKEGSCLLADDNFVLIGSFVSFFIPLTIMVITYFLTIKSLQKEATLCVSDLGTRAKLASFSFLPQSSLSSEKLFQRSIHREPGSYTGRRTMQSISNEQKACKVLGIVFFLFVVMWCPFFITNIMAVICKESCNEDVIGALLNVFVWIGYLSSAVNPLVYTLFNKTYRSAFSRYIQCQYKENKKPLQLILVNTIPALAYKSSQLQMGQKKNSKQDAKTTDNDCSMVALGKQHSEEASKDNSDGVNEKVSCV
T3 sequence (P50406 whole entry): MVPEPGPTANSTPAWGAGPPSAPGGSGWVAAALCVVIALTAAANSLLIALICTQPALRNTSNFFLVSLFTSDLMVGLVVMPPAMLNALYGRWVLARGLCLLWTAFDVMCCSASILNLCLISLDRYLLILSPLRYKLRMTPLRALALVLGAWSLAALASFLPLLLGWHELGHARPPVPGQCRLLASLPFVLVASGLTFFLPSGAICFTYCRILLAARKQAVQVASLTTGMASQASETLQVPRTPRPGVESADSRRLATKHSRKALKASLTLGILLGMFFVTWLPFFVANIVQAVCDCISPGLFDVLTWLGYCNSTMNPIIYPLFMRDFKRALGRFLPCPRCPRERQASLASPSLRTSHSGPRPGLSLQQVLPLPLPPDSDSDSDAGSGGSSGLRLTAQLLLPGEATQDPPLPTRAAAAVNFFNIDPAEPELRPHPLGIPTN

With `CN1CCN(c2nc(N)nc(COc3ccccc3C(C)(C)C)n2)CC1` [Compound 3, 4-((2-(tert-Butyl)phenoxy)metyl)-6-(4-methylpiperazin-1-yl)-1,3,5-triazin-2-amine] as the compound, how does the melting point read?
Its melting point is 107 to 109 °C.

And the Ki (human D2R)?
The Ki was 1.62 µM.

What about the “hepatotoxicity (conclusion in words)” value (HepG2 cells; HepG2, MTS assay) of the same compound?
The value was “moderate hepatotoxicity”.

And the IC50 (HepG2 cells; Homo sapiens, HepG2, MTS assay, 0.78–50 µM, 48 h incubation (72 h elsewhere in the source), read-out: IC50 (HepG2 cells' viability))?
The IC50 was 46.6 µM.

And the “Pe ± SD” value [1]?
Its value is 4.7 ×10⁻⁶ cm/s.

And the Papp ([1]; read-out: Pe ± SD)?
Its Papp is 4.7 ± 0.2 ×10⁻⁶ cm/s.

What about the Ki (human 5-HT7R; HEK293 cells stably expressing human 5-HT7R) of the same compound?
Its Ki is 6.34 µM.

And the Ki (human 5-HT7R; compound 3 and its salts)?
The Ki was 6.34 µM.

And the Ki (human 5-HT6R)?
The Ki was 0.013 µM.

What about the Ki (human 5-HT2AR) of the same compound?
The Ki was 2.18 µM.
